In ChEMBL document CHEMBL1130089 (J Med Chem, 1997):
Activity calls are given as the source filed them. The calls are words filed in the database; no cut-off is given here.

Key:
Estrogen receptor [1] = target: T1, Estrogen receptor (Homo sapiens, UniProt Q92731+P03372); assay: Compound concentration required to induce transcriptional activation in MVLN cells equal to 50% of 0.1 nM estradiol response; format: functional, cell-based
Estrogen receptor [2] = target: T1, Estrogen receptor; assay: Irreversible inhibition of [3H]estradiol binding to estrogen receptor; (-) indicates decrease in estradiol binding sites inactivated by the compound; format: protein assay
Estrogen receptor [3] = target: T1, Estrogen receptor
Description: Relative affinity constant for cytosolic estrogen receptor

Estrogen receptor [4] = target: T1, Estrogen receptor; assay: Agonist transcriptional activation in MVLN cells relative to 0.1 nM estradiol; format: functional, cell-based
Estrogen receptor [5] = target: T1, Estrogen receptor; assay: Compound concentration required to induce transcriptional activation in MVLN cells comparable to 50% of 0.1 nM estradiol response; format: functional, cell-based
Estrogen receptor [6] = target: T1, Estrogen receptor; remark: listed apart in the source

Row | IC50 (Estrogen receptor [1]) | Covalent binding (Estrogen receptor [2]) | RAC (Estrogen receptor [3]) | Activity (Estrogen receptor [4]) | EC50 (Estrogen receptor [5]) | Compound | Covalent binding (Estrogen receptor [6])
1 | 3 nM | inactive | 11 | – | – | C[C@]12C[C@H](CCCCBr)[C@@H]3c4ccc(O)cc4CC[C@H]3[C@@H]1CC[C@@H]2O | –
2 | – | inactive | 8.15 | 95% | 6 nM | C[C@]12C[C@H](CCOS(C)(=O)=O)[C@@H]3c4ccc(O)cc4CC[C@H]3[C@@H]1CC[C@@H]2O | –
3 | 320 nM | inactive | 1.64 | – | – | C[C@]12C[C@H](CCCCNC(=O)CBr)[C@@H]3c4ccc(O)cc4CC[C@H]3[C@@H]1CC[C@@H]2O | –
4 | – | – | 38.6 | 80% | < 10 nM | C=CCC[C@H]1C[C@]2(C)[C@@H](O)CC[C@H]2[C@@H]2CCc3cc(O)ccc3[C@@H]12 | –
5 | 6 nM | inactive | 36.8 | – | – | C[C@]12C[C@H](CCCCOS(C)(=O)=O)[C@@H]3c4ccc(O)cc4CC[C@H]3[C@@H]1CC[C@@H]2O | –
6 | – | inactive | 0.38 | 90% | 110 nM | C[C@]12C[C@H](CCNC(=O)CBr)[C@@H]3c4ccc(O)cc4CC[C@H]3[C@@H]1CC[C@@H]2O | –

Row | Compound | IC50 (Estrogen receptor [1]) | Covalent binding (Estrogen receptor [2]) | RAC (Estrogen receptor [3]) | Activity (Estrogen receptor [4]) | EC50 (Estrogen receptor [5]) | Covalent binding (Estrogen receptor [6])
7 | Cc1ccc(S(=O)(=O)OCCCCCCCCCC[C@H]2C[C@]3(C)[C@@H](O)CC[C@H]3[C@@H]3CCc4cc(O)ccc4[C@@H]23)cc1 | 4 nM | – | 2.59 | – | – | < 10
